In assay [1] the test system is brain level of homovanillic acid (HVA). Briefly: Effect of Drug Compounds on Brain Level of Homovanillic Acid (HVA). The class given is in vivo, male Long Evans rats. Particulars: ratio to HVA level in control group (1.0); rat brain minus cerebella, 0.15 mmoles/kg i.p. standard dose, 2 or 3 hours; only ratios greater than 1.6 considered of practical significance. How it is done: In testing for the effectiveness of the present drug compounds on the brain level of homovanillic acid (HVA), the drugs were administered intraperitoneally to male Long Evans rats (Simonsen) usually as aqueous solutions but in certain cases as suspensions in 0.5% methocel in 0.9% saline. The standard testing dose was 0.15 mmoles/kg. body weight. The test and control groups consisted of 3-5 and 5 animals, respectively. The analyses were performed on brains (minus cerebella) removed 2 or 3 hours later. In the analysis, standard extraction and fluorimetric methods were used.
In the results, the level of brain HVA in each test group is expressed as a ratio to the level of HVA in an accompanying control group that was injected with either a 0.9% saline or a 0.5% solution of methocel. Even though ratios of […] 1.3 usually have statistical significance, only ratios greater than 1.6 are considered to be of practical significance for the pharmacological classification of drugs.

For assay [2], the system named is Methamphetamine induced hyperactivity. Briefly: Antagonism of Methamphetamine induced hyperactivity in rats. Particulars: sign printed with oral ED50; rat, oral 5, 20 and 80 mg./kg. The class given is in vivo, Male Long-Evans black hooded rats. More on the design: key: (+): potentiation of Methamphetamine; (-): antagonism of Methamphetamine. How it is done:
Male Long-Evans black hooded rats, weighing between 100 and 150 grams, were administered the test drugs at oral doses of 5, 20 and 80 mg./kg. 1 hour prior to the administration of Methamphetamine at an intraperitoneal dose of 1 mg./kg. Three animals were tested at each dose level. The rats were placed in individual activity chambers equipped with photocells (Lehigh Valley, Model 1497). Antagonism of Methamphetamine induced hyperactivity was recorded as digital counts received from the photocells at one and two hour intervals. Placebo controls received a volume dose of the 0.5 carboxymethylcellulose vehicle. The data were evaluated by a one-way analysis of variance computer program. ED50 's were calculated by the method of Litchfield and Wilcoxon (J. Pharmacol. Exp. Therap.; 96:99, 1949).
In the results, a (+) indicates a potentiation of Methamphetamine and a (-) is antagonism of Methamphetamine.

On to `CCCCCCCCCCCCCCCC(=O)OCCOCCN1CCN(C2=Nc3cc(Cl)ccc3Nc3ccccc32)CC1` [IX, 8-Chloro-11-[4-2-(2-palmitoyloxyethoxy)-ethylpiperazinyl]-5H-dibenzo[b,e][1,4]diazepine], for which the “HVA Ratio” value in assay [1] is listed as 1.0. Besides, the “direction of effect on Methamphetamine” value in assay [2] was “(-)”.
Turning to `OCCOCCN1CCN(C2=Nc3cc(Cl)ccc3Nc3ccccc32)CC1` [VI, 8-Chloro-11-[4-2-(2-hydroxyethoxy)ethyl-1-piperazinyl]-5H-dibenzo[b,e][1,4]diazepine], the “HVA Ratio” value in assay [1] came to 2.8. Further, the “direction of effect on Methamphetamine” value in assay [2] was “(-)”.
Take `COCCOCCN1CCN(C2=Nc3cc(Cl)ccc3Nc3ccccc32)CC1` [VII, 8-Chloro-11[4-2-(2-methoxyethoxy)-ethylpiperazine]-5H-dibenzo[b,e][1,4]diazepine]: the “HVA Ratio” value in assay [1] turned out to be 3.1. In addition, the “direction of effect on Methamphetamine” value in assay [2] is reported as “(-)”.
Turning to `OCCOCCOCCN1CCN(C2=Nc3cc(Cl)ccc3Nc3ccccc32)CC1` [VIII, 8-Chloro-11-[4-2-(2-hydroxyethoxyethoxy)-ethylpiperazinyl]-5H-dibenzo[b,e][1,4]diazepine], the “HVA Ratio” value in assay [1] was 1.4. Besides, the “direction of effect on Methamphetamine” value in assay [2] was “(-)”.
With `CCCCCCCCCCCCCCCC(=O)OCCOCCN1CCN(C2=Nc3cc(Cl)ccc3N(C(=O)CCCCCCCCCCCCCCC)c3ccccc32)CC1` [X, 8-Chloro-11-[4-2-(2-palmitoyloxyethoxy)-ethylpiperazinyl]-5-palmitoyl-dibenzo[b,e][1,4]diazepine], in assay [2], the “direction of effect on Methamphetamine” value was “(-)”.

The values are drawn from US4097597A, “Dibenzo[b,e][1,4]diazepines” (Abbott Laboratories, priority 1977, dated 1978).
